CC1(C)[C@@H](O)CC[C@]2(C)[C@H]3C(=O)C=C4[C@@H]5C[C@@](C)(C(=O)O)CC[C@]5(C)CC[C@@]4(C)[C@]3(C)CC[C@@H]12
solubility (mole fraction)
Details	278.15 K	283.15 K	288.15 K	293.15 K	298.15 K	303.15 K	308.15 K	313.15 K	318.15 K	323.15 K
in 1,4-dioxane	–	–	0.0277	0.0286	0.0298	0.031	0.0323	0.0335	0.0348	0.0366
in DMF	0.0449	0.0478	0.051	0.0545	0.058	0.0615	0.0654	0.0692	0.0733	0.0777
in ethanol	0.0109	0.0115	0.0121	0.0128	0.0134	0.0141	0.0147	0.0155	0.0163	0.0172
in isopropanol	0.00911	0.00991	0.0108	0.0116	0.0124	0.0133	0.0142	0.0151	0.016	0.017
in water	8.02e-08	9.91e-08	1.22e-07	1.5e-07	1.82e-07	2.2e-07	2.61e-07	3.17e-07	3.76e-07	4.49e-07
